From US20240101527A1, “QUINOLONE CARBOXYLIC DERIVATIVES” (TAIGEN BIOTECHNOLOGY CO., LTD., priority 2019, published 2024)
≈ marks a conversion by molar mass, not a printed value.

Key:
Experiment in all cases: MIC determination, microdilution method (CLSI)
Format in all cases: cell-based
[1] = system: Staphylococcus aureus ATCC 29213; conditions: for MIC: Staphylococcus aureus, ATCC29213, Gram(+), 24 h at 37° C., read-out: MIC Sa29213
Experimental: (§1) The MICs of compounds against all bacterial strains were determined using the microdilution method according to the Clinical and Laboratory Standards Institute guidelines. Bacteria from two or three colonies were picked from freshly streaked culture plates and incubated in culture broth for 8 h. The bacterial culture was then diluted with double-concentrated culture broth to a final concentration of 5×10^5 colony-forming unit (CFU)/mL. Testing compounds were prepared by diluting the stock solution with dimethyl sulfoxide (DMSO). The diluted bacterial suspension was added to an equal volume of a drug solution in a single microwell and incubated for 24 h at 37° C. The minimum concentration in the microwells with no visible bacterial growth was defined as the MIC. All MIC determinations were repeated twice on different days. The MIC of Compounds 1 to 15 against gram(+) and gram(−) bacteria are shown as follows: […]

[2] = system: Streptococcus pneumoniae ATCC 49619; conditions: for MIC: Streptococcus pneumoniae, ATCC49619, Gram(+), 24 h at 37° C., read-out: MIC Sp49619
Experimental: as §1

[3] = system: Pseudomonas aeruginosa K2376; conditions: for MIC: Pseudomonas aeruginosa, K2376, Gram(−), 24 h at 37° C., read-out: MIC PaK2376
Experimental: as §1

[4] = system: Pseudomonas aeruginosa ATCC 27853; conditions: for MIC: Pseudomonas aeruginosa, ATCC27853, Gram(−), 24 h at 37° C., read-out: MIC Pa27853
Experimental: as §1

[5] = MIC of comparative compound / MIC of Compound 7
[6] = MIC of comparative compound / MIC of Compound 1
[7] = MIC of comparative compound / MIC of Compound 11
[8] = MIC of comparative compound / MIC of Compound 2
[9] = MIC of comparative compound / MIC of Compound 8
[10] = MIC of comparative compound / MIC of Compound 6

Compound | MIC [1] | MIC [2] | MIC [3] | MIC [4] | also measured
CC1CCN(c2ccc3c(=O)c(C(=O)O)cn(C4CC4)c3c2Cl)CC1N (stereo not shown) [D1, reference compound] | – | – | – | – | MIC difference (folds) Sa29213 [1, 5]: 1.0 folds; MIC difference (folds) Sp49619 [2, 5]: 1.0 folds; MIC difference (folds) PaK2376 [3, 5]: 4.0 folds; MIC difference (folds) Pa27853 [4, 5]: 2.0 folds
C[C@H]1C[C@H](N)CN(c2ccc3c(=O)c(C(=O)O)cn([C@@H]4C[C@@H]4F)c3c2Cl)C1 [Compound 11] | 0.031 µg/mL (≈ 0.0787 µM) | 0.25 µg/mL (≈ 0.635 µM) | 4 µg/mL (≈ 10.2 µM) | 2 µg/mL (≈ 5.08 µM) | –
COc1c(N2CCC(C)C(N)C2)ccc2c(=O)c(C(=O)O)cn(C3CC3)c12 (stereo not shown) [A2, reference compound] | – | – | – | – | MIC difference (folds) Sa29213 [1, 6]: 4.0 folds; MIC difference (folds) Sp49619 [2, 6]: 4.0 folds; MIC difference (folds) PaK2376 [3, 6]: 32.0 folds; MIC difference (folds) Pa27853 [4, 6]: 32.0 folds
NC1CCN(c2ccc3c(=O)c(C(=O)O)cn([C@@H]4C[C@@H]4F)c3c2Cl)CC1 [Compound 15] | 0.063 µg/mL (≈ 0.166 µM) | 0.063 µg/mL (≈ 0.166 µM) | 8 µg/mL (≈ 21.1 µM) | 0.25 µg/mL (≈ 0.658 µM) | –
CC1CC(N)CN(c2ccc3c(=O)c(C(=O)O)cn(C4CC4)c3c2Cl)C1 (stereo not shown) [F1, reference compound] | – | – | – | – | MIC difference (folds) Sa29213 [1, 7]: 1.0 folds; MIC difference (folds) Sp49619 [2, 7]: 2.0 folds; MIC difference (folds) PaK2376 [3, 7]: 1.0 folds; MIC difference (folds) Pa27853 [4, 7]: 2.0 folds
COc1c(N2CC[C@@H](F)[C@H](N)C2)ccc2c(=O)c(C(=O)O)cn([C@@H]3C[C@@H]3F)c12 [Compound 5] | 0.063 µg/mL (≈ 0.16 µM) | 0.063 µg/mL (≈ 0.16 µM) | 16 µg/mL (≈ 40.7 µM) | 4 µg/mL (≈ 10.2 µM) | –
CC[C@@H]1CCN(c2ccc3c(=O)c(C(=O)O)cn([C@@H]4C[C@@H]4F)c3c2OC)C[C@H]1N [Compound 2] | 0.031 µg/mL (≈ 0.0768 µM) | 0.031 µg/mL (≈ 0.0768 µM) | 2 µg/mL (≈ 4.96 µM) | 0.5 µg/mL (≈ 1.24 µM) | –
CCC1CCN(c2ccc3c(=O)c(C(=O)O)cn(CC(F)F)c3c2OC)CC1N (stereo not shown) [B3, reference compound] | – | – | – | – | MIC difference (folds) Sa29213 [1, 8]: 1.0 folds; MIC difference (folds) Sp49619 [2, 8]: 8.1 folds; MIC difference (folds) PaK2376 [3, 8]: 8.0 folds; MIC difference (folds) Pa27853 [4, 8]: 4.0 folds
COc1c(N2CC[C@@H](C(F)(F)F)[C@H](N)C2)ccc2c(=O)c(C(=O)O)cn([C@@H]3C[C@@H]3F)c12 [Compound 4] | 0.031 µg/mL (≈ 0.0699 µM) | 0.031 µg/mL (≈ 0.0699 µM) | 4 µg/mL (≈ 9.02 µM) | 4 µg/mL (≈ 9.02 µM) | –
CCC1CCN(c2ccc3c(=O)c(C(=O)O)cn(CC(F)(F)F)c3c2OC)CC1N (stereo not shown) [B2, reference compound] | – | – | – | – | MIC difference (folds) Sa29213 [1, 8]: 1.0 folds; MIC difference (folds) Sp49619 [2, 8]: 4.0 folds; MIC difference (folds) PaK2376 [3, 8]: 4.0 folds; MIC difference (folds) Pa27853 [4, 8]: 16.0 folds
CCC1CCN(c2ccc3c(=O)c(C(=O)O)cn(CC(F)F)c3c2Cl)CC1N (stereo not shown) [E1, reference compound] | – | – | – | – | MIC difference (folds) Sa29213 [1, 9]: 1.0 folds; MIC difference (folds) Sp49619 [2, 9]: 15.6 folds; MIC difference (folds) PaK2376 [3, 9]: 8.0 folds; MIC difference (folds) Pa27853 [4, 9]: 8.0 folds
COc1c(N2C[C@@H](N)C[C@H](F)C2)ccc2c(=O)c(C(=O)O)cn([C@@H]3C[C@@H]3F)c12 [Compound 13] | 0.063 µg/mL (≈ 0.16 µM) | 0.031 µg/mL (≈ 0.0788 µM) | 16 µg/mL (≈ 40.7 µM) | 2 µg/mL (≈ 5.08 µM) | –
C[C@@H]1CCN(c2ccc3c(=O)c(C(=O)O)cn([C@@H]4C[C@@H]4F)c3c2Cl)C[C@H]1N [Compound 7] | 0.031 µg/mL (≈ 0.0787 µM) | 0.031 µg/mL (≈ 0.0787 µM) | 2 µg/mL (≈ 5.08 µM) | 2 µg/mL (≈ 5.08 µM) | –
COc1c(N2CC[C@H](N)[C@@H](F)C2)ccc2c(=O)c(C(=O)O)cn([C@@H]3C[C@@H]3F)c12 [Compound 14] | 0.063 µg/mL (≈ 0.16 µM) | 0.125 µg/mL (≈ 0.318 µM) | 2 µg/mL (≈ 5.08 µM) | 2 µg/mL (≈ 5.08 µM) | –
COc1c(N2CC[C@H](N)C2)ccc2c(=O)c(C(=O)O)cn(C3CC3)c12 [C1, reference compound] | – | – | – | – | MIC difference (folds) Sa29213 [1, 10]: 4.0 folds; MIC difference (folds) Sp49619 [2, 10]: 8.0 folds
CC1CC(N)CN(c2ccc3c(=O)c(C(=O)O)cn(CC(F)F)c3c2Cl)C1 (stereo not shown) [F2, reference compound] | – | – | – | – | MIC difference (folds) Sa29213 [1, 7]: 16.1 folds; MIC difference (folds) Sp49619 [2, 7]: 16.0 folds; MIC difference (folds) PaK2376 [3, 7]: 4.0 folds; MIC difference (folds) Pa27853 [4, 7]: 4.0 folds
COc1c(N2CCC(N)C2)ccc2c(=O)c(C(=O)O)cn(C3CC3F)c12 (stereo not shown) [C2, reference compound] | – | – | – | – | MIC difference (folds) Sa29213 [1, 10]: 8.0 folds; MIC difference (folds) Sp49619 [2, 10]: 15.9 folds; MIC difference (folds) PaK2376 [3, 10]: 1.0 folds; MIC difference (folds) Pa27853 [4, 10]: 1.0 folds
CCC1CCN(c2ccc3c(=O)c(C(=O)O)cn(C4CC4)c3c2OC)CC1N (stereo not shown) [B1, reference compound] | – | – | – | – | MIC difference (folds) Sa29213 [1, 8]: 8.1 folds; MIC difference (folds) Sp49619 [2, 8]: 1.0 folds; MIC difference (folds) PaK2376 [3, 8]: 2.0 folds; MIC difference (folds) Pa27853 [4, 8]: 2.0 folds
Cc1c(N2C[C@@H](C)C[C@H](N)C2)ccc2c(=O)c(C(=O)O)cn([C@@H]3C[C@@H]3F)c12 [Compound 12] | 0.063 µg/mL (≈ 0.169 µM) | 0.125 µg/mL (≈ 0.335 µM) | 4 µg/mL (≈ 10.7 µM) | 1 µg/mL (≈ 2.68 µM) | –
COc1c(N2CCC(C)C(N)C2)ccc2c(=O)c(C(=O)O)cn(C3CC3F)c12 (stereo not shown) [Compound 1, 7-(3-Amino-4-methyl-piperidin-1-yl)-1-(2-fluoro-cyclopropyl)-8-methoxy-4-oxo-1,4-dihydro-quinoline-3-carboxylic acid] | 0.031 µg/mL (≈ 0.0796 µM) | 0.031 µg/mL (≈ 0.0796 µM) | 1 µg/mL (≈ 2.57 µM) | 0.25 µg/mL (≈ 0.642 µM) | –
CCC[C@@H]1CCN(c2ccc3c(=O)c(C(=O)O)cn([C@@H]4C[C@@H]4F)c3c2OC)C[C@H]1N [Compound 3] | 0.031 µg/mL (≈ 0.0743 µM) | 0.031 µg/mL (≈ 0.0743 µM) | 4 µg/mL (≈ 9.58 µM) | 2 µg/mL (≈ 4.79 µM) | –
COc1c(N2CC[C@H](N)C2)ccc2c(=O)c(C(=O)O)cn(C(C)CF)c12 (stereo partly shown) [C3, reference compound] | – | – | – | – | MIC difference (folds) Sa29213 [1, 10]: 127.0 folds; MIC difference (folds) Sp49619 [2, 10]: 508.0 folds; MIC difference (folds) PaK2376 [3, 10]: 4.0 folds; MIC difference (folds) Pa27853 [4, 10]: 16.0 folds
CC[C@@H]1CCN(c2ccc3c(=O)c(C(=O)O)cn([C@@H]4C[C@@H]4F)c3c2C)C[C@H]1N [Compound 10] | 0.031 µg/mL (≈ 0.08 µM) | 0.031 µg/mL (≈ 0.08 µM) | 0.5 µg/mL (≈ 1.29 µM) | 0.125 µg/mL (≈ 0.323 µM) | –
Cc1c(N2CCC[C@H](N)C2)ccc2c(=O)c(C(=O)O)cn([C@@H]3C[C@@H]3F)c12 [Compound 9] | 0.031 µg/mL (≈ 0.0863 µM) | 0.031 µg/mL (≈ 0.0863 µM) | 2 µg/mL (≈ 5.56 µM) | 0.5 µg/mL (≈ 1.39 µM) | –
CC[C@@H]1CCN(c2ccc3c(=O)c(C(=O)O)cn([C@@H]4C[C@@H]4F)c3c2Cl)C[C@H]1N [Compound 8] | 0.031 µg/mL (≈ 0.076 µM) | 0.008 µg/mL (≈ 0.0196 µM) | 0.5 µg/mL (≈ 1.23 µM) | 0.125 µg/mL (≈ 0.306 µM) | –
COc1c(N2CC(C)C(N)C2)ccc2c(=O)c(C(=O)O)cn(C3CC3)c12 (stereo not shown) [A1, reference compound] | – | – | – | – | MIC difference (folds) Sa29213 [1, 6]: 16.1 folds; MIC difference (folds) Sp49619 [2, 6]: 64.5 folds
